Where two headings read alike, the source gives them in different places.
Tests used:
[1] = tested on: Early erythroblast progenitor cells derived from cord blood; test: Reversion of immortality after doxycycline withdrawal (qRT-PCR, cell size); assay type: cell-based, human
hepatocytes [2] = test: RNA-seq of hepatocytes stimulated with the compounds of Table 68
hepatocytes [3] = test: qRT-PCR validation of the Example 12 RNA-seq results;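 further: Compound-treated versus DMSO control, target Ct normalized to GAPDH or β-actin reference (ΔΔCt method), positive values mean higher expression than DMSO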
[4] = sample D2-Dox− (2 days after doxycycline withdrawn)
[5] = sample D3-Dox− (3 days after doxycycline withdrawn)
[6] = sample D4-Dox− (4 days after doxycycline withdrawn)
[7] = sample D5-Dox− (5 days after doxycycline withdrawn)
[8] = sample D2-dox+ (day 2, on doxycycline; reference)
[9] = sample D6-dox− (6 days after doxycycline withdrawn)
[10] = hepatocytes stimulated with the compound, RNA-seq, significance: FPKM≥1, q-value≤0.05, log 2 fold change≥1.5

C[C@H]1c2cccc(O)c2C(=O)C2=C(O)[C@]3(O)C(=O)C(C(N)=O)=C(O)[C@@H](N(C)C)[C@@H]3[C@@H](O)[C@@H]21 [Dox]
RQ of ALAS2 [1, 4]: 2.98
RQ of BCLXL [1, 4]: 0.29
RQ of HBB [1, 4]: 7.81
RQ of MYC [1, 4]: 0.04
RQ of RPS19 [1, 4]: 0.28
RQ of p21 [1, 4]: 2.31
RQ of p53 [1, 4]: 0.40
RQ of ALAS2 [1, 5]: 1.44
RQ of BCLXL [1, 5]: 0.11
RQ of HBB [1, 5]: 5.57
RQ of MYC [1, 5]: 0.03
RQ of RPS19 [1, 5]: 0.21
RQ of p21 [1, 5]: 1.05
RQ of p53 [1, 5]: 0.21
RQ of ALAS2 [1, 6]: 0.94
RQ of BCLXL [1, 6]: 0.07
RQ of HBB [1, 6]: 4.89
RQ of MYC [1, 6]: 0.06
RQ of RPS19 [1, 6]: 0.28
RQ of p21 [1, 6]: 2.03
RQ of p53 [1, 6]: 0.22
RQ of ALAS2 [1, 7]: 0.40
RQ of BCLXL [1, 7]: 0.04
RQ of HBB [1, 7]: 2.13
RQ of MYC [1, 7]: 0.06
RQ of RPS19 [1, 7]: 0.27
RQ of p21 [1, 7]: 1.61
RQ of p53 [1, 7]: 0.20

C[C@]12C=CC(=O)C=C1CC[C@@H]1[C@@H]2C(=O)C[C@@]2(C)[C@H]1CC[C@]2(O)C(=O)CO [MT-861, Prednisone]
Cuffdiff log2fc, AMACR (hepatocytes [2]; log 2 fold change in AMACR gene expression, hepatocytes, RNA-seq, Cuffdiff): −1.4
DESeq log2fc, AMACR (hepatocytes [2]; log 2 fold change in AMACR gene expression, hepatocytes, RNA-seq, DESeq): −1.24
Cuffdiff log2fc, ARG1 (hepatocytes [2]; log 2 fold change in ARG1 gene expression, hepatocytes, RNA-seq, Cuffdiff): 1.48
DESeq log2fc, ARG1 (hepatocytes [2]; log 2 fold change in ARG1 gene expression, hepatocytes, RNA-seq, DESeq): 1.59
Cuffdiff log2fc, CA2 (hepatocytes [2]; log 2 fold change in CA2 gene expression, hepatocytes, RNA-seq, Cuffdiff): −1.05
DESeq log2fc, CA2 (hepatocytes [2]; log 2 fold change in CA2 gene expression, hepatocytes, RNA-seq, DESeq): −0.95
Cuffdiff log2fc, CIDEC (hepatocytes [2]; log 2 fold change in CIDEC gene expression, hepatocytes, RNA-seq, Cuffdiff): 1.02
DESeq log2fc, CIDEC (hepatocytes [2]; log 2 fold change in CIDEC gene expression, hepatocytes, RNA-seq, DESeq): 1.19
Cuffdiff log2fc, CPS1 (hepatocytes [2]; log 2 fold change in CPS1 gene expression, hepatocytes, RNA-seq, Cuffdiff): 2.14
DESeq log2fc, CPS1 (hepatocytes [2]; log 2 fold change in CPS1 gene expression, hepatocytes, RNA-seq, DESeq): 2.17
Cuffdiff log2fc, ENO3 (hepatocytes [2]; log 2 fold change in ENO3 gene expression, hepatocytes, RNA-seq, Cuffdiff): −1.24
DESeq log2fc, ENO3 (hepatocytes [2]; log 2 fold change in ENO3 gene expression, hepatocytes, RNA-seq, DESeq): −1.03
Cuffdiff log2fc, G6PC (hepatocytes [2]; log 2 fold change in G6PC gene expression, hepatocytes, RNA-seq, Cuffdiff): 1.02
DESeq log2fc, G6PC (hepatocytes [2]; log 2 fold change in G6PC gene expression, hepatocytes, RNA-seq, DESeq): 1.03
Cuffdiff log2fc, GYS2 (hepatocytes [2]; log 2 fold change in GYS2 gene expression, hepatocytes, RNA-seq, Cuffdiff): 2.21
DESeq log2fc, GYS2 (hepatocytes [2]; log 2 fold change in GYS2 gene expression, hepatocytes, RNA-seq, DESeq): 2.49
Cuffdiff log2fc, HGD (hepatocytes [2]; log 2 fold change in HGD gene expression, hepatocytes, RNA-seq, Cuffdiff): 1.23
DESeq log2fc, HGD (hepatocytes [2]; log 2 fold change in HGD gene expression, hepatocytes, RNA-seq, DESeq): 1.31
Cuffdiff log2fc, HOGA1 (hepatocytes [2]; log 2 fold change in HOGA1 gene expression, hepatocytes, RNA-seq, Cuffdiff): 1
DESeq log2fc, HOGA1 (hepatocytes [2]; log 2 fold change in HOGA1 gene expression, hepatocytes, RNA-seq, DESeq): 1.04
Cuffdiff log2fc, HPGD (hepatocytes [2]; log 2 fold change in HPGD gene expression, hepatocytes, RNA-seq, Cuffdiff): 2.07
DESeq log2fc, HPGD (hepatocytes [2]; log 2 fold change in HPGD gene expression, hepatocytes, RNA-seq, DESeq): 2.29
Cuffdiff log2fc, NCF2 (hepatocytes [2]; log 2 fold change in NCF2 gene expression, hepatocytes, RNA-seq, Cuffdiff): −1.71
DESeq log2fc, NCF2 (hepatocytes [2]; log 2 fold change in NCF2 gene expression, hepatocytes, RNA-seq, DESeq): −1.6
Cuffdiff log2fc, RMRP (hepatocytes [2]; log 2 fold change in RMRP gene expression, hepatocytes, RNA-seq, Cuffdiff): −1.43
DESeq log2fc, RMRP (hepatocytes [2]; log 2 fold change in RMRP gene expression, hepatocytes, RNA-seq, DESeq): −0.78
Cuffdiff log2fc, SLC37A4 (hepatocytes [2]; log 2 fold change in SLC37A4 gene expression, hepatocytes, RNA-seq, Cuffdiff): 1.16
DESeq log2fc, SLC37A4 (hepatocytes [2]; log 2 fold change in SLC37A4 gene expression, hepatocytes, RNA-seq, DESeq): 1.18
Cuffdiff log2fc, TAT (hepatocytes [2]; log 2 fold change in TAT gene expression, hepatocytes, RNA-seq, Cuffdiff): 2.37
DESeq log2fc, TAT (hepatocytes [2]; log 2 fold change in TAT gene expression, hepatocytes, RNA-seq, DESeq): 2.48
Cuffdiff log2fc, TDO2 (hepatocytes [2]; log 2 fold change in TDO2 gene expression, hepatocytes, RNA-seq, Cuffdiff): 1.05
DESeq log2fc, TDO2 (hepatocytes [2]; log 2 fold change in TDO2 gene expression, hepatocytes, RNA-seq, DESeq): 1.21
qRT-PCR log2fc, AMACR (hepatocytes [3]; log 2 fold change in AMACR gene expression): −0.35
qRT-PCR log2fc, ARG1 (hepatocytes [3]; log 2 fold change in ARG1 gene expression): 1.53
qRT-PCR log2fc, CA2 (hepatocytes [3]; log 2 fold change in CA2 gene expression): −0.1
qRT-PCR log2fc, CIDEC (hepatocytes [3]; log 2 fold change in CIDEC gene expression): 1.1
qRT-PCR log2fc, CPS1 (hepatocytes [3]; log 2 fold change in CPS1 gene expression): 0.61
qRT-PCR log2fc, ENO3 (hepatocytes [3]; log 2 fold change in ENO3 gene expression): −0.03
qRT-PCR log2fc, G6PC (hepatocytes [3]; log 2 fold change in G6PC gene expression): 0.76
qRT-PCR log2fc, GYS2 (hepatocytes [3]; log 2 fold change in GYS2 gene expression): 0.71
qRT-PCR log2fc, HGD (hepatocytes [3]; log 2 fold change in HGD gene expression): 0.5
qRT-PCR log2fc, HOGA1 (hepatocytes [3]; log 2 fold change in HOGA1 gene expression): 1.47
qRT-PCR log2fc, HPGD (hepatocytes [3]; log 2 fold change in HPGD gene expression): 0.36
qRT-PCR log2fc, NCF2 (hepatocytes [3]; log 2 fold change in NCF2 gene expression): −0.4
qRT-PCR log2fc, RMRP (hepatocytes [3]; log 2 fold change in RMRP gene expression): −0.33
qRT-PCR log2fc, SLC37A4 (hepatocytes [3]; log 2 fold change in SLC37A4 gene expression): 0.99
qRT-PCR log2fc, TAT (hepatocytes [3]; log 2 fold change in TAT gene expression): 3.26
qRT-PCR log2fc, TDO2 (hepatocytes [3]; log 2 fold change in TDO2 gene expression): 1.41

C[C@H]1c2cccc(O)c2C(=O)C2=C(O)[C@]3(O)C(=O)C(C(N)=O)=C(O)[C@@H](N(C)C)[C@@H]3[C@@H](O)[C@@H]21 [dox]
RQ of ALAS2 [1, 8]: 1.00
RQ of BCLXL [1, 8]: 1.00
RQ of HBB [1, 8]: 1.00
RQ of MYC [1, 8]: 1.00
RQ of p21 [1, 8]: 1.00
RQ of p53 [1, 8]: 1.00
RQ (relative quantification of expression) of RPS19 ([1]; sample D2-dox+ (day 2, on doxycycline; reference), B-ACTIN control): 1.00
RQ of ALAS2 [1, 9]: 0.17
RQ of BCLXL [1, 9]: 0.03
RQ of HBB [1, 9]: 0.57
RQ of MYC [1, 9]: 0.03
RQ of RPS19 [1, 9]: 0.21
RQ of p21 [1, 9]: 1.14
RQ of p53 [1, 9]: 0.16

OCCn1cc(-c2ccc3c(c2)CC/C3=N\O)c(-c2ccncc2)n1 [GDC-0879]
# of genes having significantly altered expression (hepatocytes [2]; [10]): 274

NCC(=O)Nc1ccc(-n2nc(C(F)(F)F)cc2-c2ccc3c(ccc4ccccc43)c2)cc1 [OSU-03012]
# of genes having significantly altered expression (hepatocytes [2]; [10]): 1786

Cn1cc(-c2ccc3nnc(C(F)(F)c4ccc5ncccc5c4)n3n2)cn1 [JNJ-38877605]
# of genes having significantly altered expression (hepatocytes [2]): 64

Cc1ccc2nc(NC(=O)CSc3nc4c(c(=O)n3-c3ccccc3)SCC4)sc2c1 [IWP-2]
# of genes having significantly altered expression (hepatocytes [2]; hepatocytes stimulated with the compound, RNA-seq, […]): 15

COc1ccc(C(=O)Nc2sc3c(c2C(N)=O)CCCC3)cc1OC [TCS 359]
# of genes having significantly altered expression (hepatocytes [2]): 63

B1: Anti-mullerian hormone (protein, UniProt P03971 452-560, looked up)
Muellerian-inhibiting factor: SAGATAADGPCALRELSVDLRAERSVLIPETYQANNCQGVCGWPQSDRNPRYGNHVVLLLKMQVRGAALARPPCCVPTAYAGKLLISLSEERISAHHVPNMVATECGCR
# of genes having significantly altered expression (hepatocytes [2]; [10]): 912

B2: BMP4 (protein, UniProt P12644 293-408, looked up)
Bone morphogenetic protein 4: SPKHHSQRARKKNKNCRRHSLYVDFSDVGWNDWIVAPPGYQAFYCHGDCPFPLADHLNSTNHAIVQTLVNSVNSSIPKACCVPTELSAISMLYLDEYDKVVLKNYQEMVVEGCGCR
# of genes having significantly altered expression (hepatocytes [2]; [10]): 2218

B3: Nodal (protein, UniProt Q96S42 238-347, looked up)
Nodal homolog: HHLPDRSQLCRKVKFQVDFNLIGWGSWIIYPKQYNAYRCEGECPNPVGEEFHPTNHAYIQSLLKRYQPHRVPSTCCAPVKTKPLSMLYVDNGRVLLDHHKDMIVEECGCL
# of genes having significantly altered expression (hepatocytes [2]; [10]): 863

B4: GDF10 (BMP3b) (protein, UniProt P55107 369-478, looked up)
Growth/differentiation factor …: QWDEPRVCSRRYLKVDFADIGWNEWIISPKSFDAYYCAGACEFPMPKIVRPSNHATIQSIVRAVGIIPGIPEPCCVPDKMNSLGVLFLDENRNVVLKVYPNMSVDTCACR
# of genes having significantly altered expression (hepatocytes [2]; [10]): 855

B5: Wnt3a (protein, UniProt P56704 19-352, looked up)
Protein Wnt-3a: SYPIWWSLAVGPQYSSLGSQPILCASIPGLVPKQLRFCRNYVEIMPSVAEGIKIGIQECQHQFRGRRWNCTTVHDSLAIFGPVLDKATRESAFVHAIASAGVAFAVTRSCAEGTAAICGCSSRHQGSPGKGWKWGGCSEDIEFGGMVSREFADARENRPDARSAMNRHNNEAGRQAIASHMHLKCKCHGLSGSCEVKTCWWSQPDFRAIGDFLKDKYDSASEMVVEKHRESRGWVETLRPRYTYFKVPTERDLVYYEASPNFCEPNPETGSFGTRDRTCNVSSHGIDGCDLLCCGRGHNARAERRREKCRCVFHWCCYVSCQECTRVYDVHTCK
# of genes having significantly altered expression (hepatocytes [2]; [10]): 1142
